Laboratory results as given in patent US20240018145A1, “[…]-DEPENDENT EN[…] TREATING OR […]” (priority 2020, published 2024).

system: FLU A (PR/8/34); assay: Flu A Neuraminidase Antiviral Assay; assay type: cell-based

Point of comparison: `Cc1ccccc1C1C(CC2CC2(F)F)CCC2N(C)C(=O)c3c(O)c(=O)ccn3N12` (single isomer, unassigned) [Compound 88D], EC50 2.9 nM. Against it:
- Cc1ccccc1C1C(CC(F)(F)F)CC(C)C2N(C)C(=O)c3c(O)c(=O)ccn3N12 (single isomer, unassigned) [Compound 79B, 7-hydroxy-4,5-dimethyl-1-(o-tolyl)-2-(2,2,2-trifluoroethyl)-1,2,3,4,4a,5-hexahydrodipyrido[1,2-b:2′,1′-f][1,2,4]triazine-6,8-dione] — within 1.5-fold, 2.3 nM
- Cc1c(F)cccc1C1C(CC(F)(F)F)CCC2N(C)C(=O)c3c(O)c(=O)ccn3N12 (single isomer, unassigned) [Compound 80A, 1-(3-fluoro-2-methylphenyl)-7-hydroxy-5-methyl-2-(2,2,2-trifluoroethyl)-1,2,3,4,4a,5-hexahydrodipyrido[1,2-b:2′,1′-f][1,2,4]triazine-6,8-dione] — 21-fold higher, 59.6 nM
- Cc1c(F)cccc1C1C(CC(F)(F)F)CCC2N(C)C(=O)c3c(O)c(=O)ccn3N12 (single isomer, unassigned) [Compound 80B, 1-(3-fluoro-2-methylphenyl)-7-hydroxy-5-methyl-2-(2,2,2-trifluoroethyl)-1,2,3,4,4a,5-hexahydrodipyrido[1,2-b:2′,1′-f][1,2,4]triazine-6,8-dione] — within 1.5-fold, 3.3 nM
- Cc1ccccc1C1C(CC(F)(C(F)(F)F)C(F)(F)F)CCC2N(C)C(=O)c3c(O)c(=O)ccn3N12 (single isomer, unassigned) [Compound 81A, 7-hydroxy-5-methyl-2-(2,3,3,3-tetrafluoro-2-(trifluoromethyl)propyl)-1-(o-tolyl)-1,2,3,4,4a,5-hexahydrodipyrido[1,2-b:2′,1′-f][1,2,4]triazine-6,8-dione] — 6.6-fold higher, 19.1 nM
- Cc1ccccc1C1C(CC(F)(C(F)(F)F)C(F)(F)F)CCC2N(C)C(=O)c3c(O)c(=O)ccn3N12 (single isomer, unassigned) [Compound 81B, 7-hydroxy-5-methyl-2-(2,3,3,3-tetrafluoro-2-(trifluoromethyl)propyl)-1-(o-tolyl)-1,2,3,4,4a,5-hexahydrodipyrido[1,2-b:2′,1′-f][1,2,4]triazine-6,8-dione] — 260-fold higher, 744 nM
- CCN1C(=O)c2c(O)c(=O)ccn2N2C(c3ccccc3)C(CC(F)(F)F)CCC12C (single isomer, unassigned) [Compound 82A, 5-ethyl-7-hydroxy-4a-methyl-1-phenyl-2-(2,2,2-trifluoroethyl)-1,2,3,4,4a,5-hexahydrodipyrido[1,2-b:2′,1′-f][1,2,4]triazine-6,8-dione] — higher, > 810 nM
- CCN1C(=O)c2c(O)c(=O)ccn2N2C(c3ccccc3)C(CC(F)(F)F)CCC12C (single isomer, unassigned) [Compound 82B, 5-ethyl-7-hydroxy-4a-methyl-1-phenyl-2-(2,2,2-trifluoroethyl)-1,2,3,4,4a,5-hexahydrodipyrido[1,2-b:2′,1′-f][1,2,4]triazine-6,8-dione] — within 1.5-fold, 2.3 nM
- CN1C(=O)c2c(O)c(=O)ccn2N2C(c3cccc(Br)c3)C(CC(F)(F)F)CCC12 (single isomer, unassigned) [Compound 83A, 1-(3-bromophenyl)-7-hydroxy-5-methyl-2-(2,2,2-trifluoroethyl)-1,2,3,4,4a,5-hexahydrodipyrido[1,2-b:2′,1′-f][1,2,4]triazine-6,8-dione] — 52-fold higher, 152 nM
- CN1C(=O)c2c(O)c(=O)ccn2N2C(c3cccc(Br)c3)C(CC(F)(F)F)CCC12 (single isomer, unassigned) [Compound 83B, 1-(3-bromophenyl)-7-hydroxy-5-methyl-2-(2,2,2-trifluoroethyl)-1,2,3,4,4a,5-hexahydrodipyrido[1,2-b:2′,1′-f][1,2,4]triazine-6,8-dione] — within 1.5-fold, 2.2 nM
- CN1C(=O)c2c(O)c(=O)ccn2N2C(c3ccccc3)C(C3CCC(F)(F)CC3)CCC12 (single isomer, unassigned) [Compound 84A, 2-(4,4-difluorocyclohexyl)-7-hydroxy-5-methyl-1-phenyl-1,2,3,4,4a,5-hexahydrodipyrido[1,2-b:2′,1′-f][1,2,4]triazine-6,8-dione] — higher, > 810 nM
- CN1C(=O)c2c(O)c(=O)ccn2N2C(c3ccccc3)C(C3CCC(F)(F)CC3)CCC12 (single isomer, unassigned) [Compound 84B, 2-(4,4-difluorocyclohexyl)-7-hydroxy-5-methyl-1-phenyl-1,2,3,4,4a,5-hexahydrodipyrido[1,2-b:2′,1′-f][1,2,4]triazine-6,8-dione] — 14-fold higher, 42 nM
- CN1C(=O)c2c(O)c(=O)ccn2N2C(c3ccccc3)C(c3ccc(F)c(F)c3F)CCC12 (single isomer, unassigned) [Compound 85A, 7-hydroxy-5-methyl-1-phenyl-2-(2,3,4-trifluorophenyl)-1,2,3,4,4a,5-hexahydrodipyrido[1,2-b:2′,1′-f][1,2,4]triazine-6,8-dione] — higher, > 810 nM
- CN1C(=O)c2c(O)c(=O)ccn2N2C(c3ccccc3)C(c3ccc(F)c(F)c3F)CCC12 (single isomer, unassigned) [Compound 85B, 7-hydroxy-5-methyl-1-phenyl-2-(2,3,4-trifluorophenyl)-1,2,3,4,4a,5-hexahydrodipyrido[1,2-b:2′,1′-f][1,2,4]triazine-6,8-dione] — 3.3-fold higher, 9.7 nM
- CN1C(=O)c2c(O)c(=O)ccn2N2C(c3ccccc3)C(c3ccc(F)c(F)c3F)CCC12 (single isomer, unassigned) [Compound 85C, 7-hydroxy-5-methyl-1-phenyl-2-(2,3,4-trifluorophenyl)-1,2,3,4,4a,5-hexahydrodipyrido[1,2-b:2′,1′-f][1,2,4]triazine-6,8-dione] — higher, > 810 nM
- CN1C(=O)c2c(O)c(=O)ccn2N2C(c3ccccc3)C(c3ccc(F)c(F)c3F)CCC12 (single isomer, unassigned) [Compound 85D, 7-hydroxy-5-methyl-1-phenyl-2-(2,3,4-trifluorophenyl)-1,2,3,4,4a,5-hexahydrodipyrido[1,2-b:2′,1′-f][1,2,4]triazine-6,8-dione] — 75-fold higher, 218 nM
- CN1C(=O)c2c(O)c(=O)ccn2N2C(c3ccccc3)C(c3cc(F)c(F)cc3F)CCC12 (single isomer, unassigned) [Compound 86A, 7-hydroxy-5-methyl-1-phenyl-2-(2,4,5-trifluorophenyl)-1,2,3,4,4a,5-hexahydrodipyrido[1,2-b:2′,1′-f][1,2,4]triazine-6,8-dione] — within 1.5-fold, 4.3 nM
- CN1C(=O)c2c(O)c(=O)ccn2N2C(c3ccccc3)C(c3cc(F)c(F)cc3F)CCC12 (single isomer, unassigned) [Compound 86B, 7-hydroxy-5-methyl-1-phenyl-2-(2,4,5-trifluorophenyl)-1,2,3,4,4a,5-hexahydrodipyrido[1,2-b:2′,1′-f][1,2,4]triazine-6,8-dione] — higher, > 810 nM
- CN1C(=O)c2c(O)c(=O)ccn2N2C(c3ccccc3)C(c3cc(F)c(F)cc3F)CCC12 (single isomer, unassigned) [Compound 86C, 7-hydroxy-5-methyl-1-phenyl-2-(2,4,5-trifluorophenyl)-1,2,3,4,4a,5-hexahydrodipyrido[1,2-b:2′,1′-f][1,2,4]triazine-6,8-dione] — 79-fold higher, 230 nM
- CN1C(=O)c2c(O)c(=O)ccn2N2C(c3ccccc3)C(c3cc(F)c(F)cc3F)CCC12 (single isomer, unassigned) [Compound 86D, 7-hydroxy-5-methyl-1-phenyl-2-(2,4,5-trifluorophenyl)-1,2,3,4,4a,5-hexahydrodipyrido[1,2-b:2′,1′-f][1,2,4]triazine-6,8-dione] — higher, > 810 nM
- Cc1ccccc1C1C(CC(F)(F)F)CCC2(C)N(C)C(=O)c3c(O)c(=O)ccn3N12 (single isomer, unassigned) [Compound 87A, 7-hydroxy-4a,5-dimethyl-1-(o-tolyl)-2-(2,2,2-trifluoroethyl)-1,2,3,4,4a,5-hexahydrodipyrido[1,2-b:2′,1′-f][1,2,4]triazine-6,8-dione] — higher, > 810 nM
- Cc1ccccc1C1C(CC(F)(F)F)CCC2(C)N(C)C(=O)c3c(O)c(=O)ccn3N12 (single isomer, unassigned) [Compound 87B, 7-hydroxy-4a,5-dimethyl-1-(o-tolyl)-2-(2,2,2-trifluoroethyl)-1,2,3,4,4a,5-hexahydrodipyrido[1,2-b:2′,1′-f][1,2,4]triazine-6,8-dione] — within 1.5-fold, 3.6 nM
- Cc1ccccc1C1C(CC2CC2(F)F)CCC2N(C)C(=O)c3c(O)c(=O)ccn3N12 (single isomer, unassigned) [Compound 88A] — higher, > 810 nM
- Cc1ccccc1C1C(CC2CC2(F)F)CCC2N(C)C(=O)c3c(O)c(=O)ccn3N12 (single isomer, unassigned) [Compound 88B] — higher, > 810 nM
- Cc1ccccc1C1C(CC2CC2(F)F)CCC2N(C)C(=O)c3c(O)c(=O)ccn3N12 (single isomer, unassigned) [Compound 88C] — within 1.5-fold, 4 nM
- CN1C(=O)c2c(O)c(=O)ccn2N2C(c3ccccc3Br)C(CC(F)(F)F)CCC12 (single isomer, unassigned) [Compound 89A, 1-(2-bromophenyl)-7-hydroxy-5-methyl-2-(2,2,2-trifluoroethyl)-1,2,3,4,4a,5-hexahydrodipyrido[1,2-b:2′,1′-f][1,2,4]triazine-6,8-dione] — 100-fold higher, 298 nM
- CN1C(=O)c2c(O)c(=O)ccn2N2C(c3ccccc3Br)C(CC(F)(F)F)CCC12 (single isomer, unassigned) [Compound 89B, 1-(2-bromophenyl)-7-hydroxy-5-methyl-2-(2,2,2-trifluoroethyl)-1,2,3,4,4a,5-hexahydrodipyrido[1,2-b:2′,1′-f][1,2,4]triazine-6,8-dione] — within 1.5-fold, 2.4 nM
- O=C1c2c(O)c(=O)ccn2N2C(c3ccccc3)C(CC3(C(F)(F)F)CC3)CCC2N1CC1CC1 (single isomer, unassigned) [Compound 90A, 5-(cyclopropylmethyl)-7-hydroxy-1-phenyl-2-((1-(trifluoromethyl)cyclopropyl)methyl)-1,2,3,4,4a,5-hexahydrodipyrido[1,2-b:2′,1′-f][1,2,4]triazine-6,8-dione] — 270-fold higher, 772 nM
- O=C1c2c(O)c(=O)ccn2N2C(c3ccccc3)C(CC3(C(F)(F)F)CC3)CCC2N1CC1CC1 (single isomer, unassigned) [Compound 90B, 5-(cyclopropylmethyl)-7-hydroxy-1-phenyl-2-((1-(trifluoromethyl)cyclopropyl)methyl)-1,2,3,4,4a,5-hexahydrodipyrido[1,2-b:2′,1′-f][1,2,4]triazine-6,8-dione] — 10-fold higher, 29.3 nM
